Assays:
TNFα production = assay: Inhibition of the production of TNFα in vivo (Test Examples 2 and 2′); settings: Table 9′; Balb/c mice, oral administration 30 minutes before intravenous lipopolysaccharide, plasma TNFα 1 hour after LPS
Procedure: This test was performed according to the method of Ochalski, et al. [S. J. Ochalski, D. A. Hartman, M. T. Belfast, T. L. Walter, K. B. Glaser and R. P. Carlson; Inhibition of endotoxin-induced hypothermia and serum TNF-α levels in CD-1 mice by various pharmacological agents: Agents Actions 39, C52–C54 (1993)].
The production of TNFα was induced in mice by the intravenous injection of lipopolysaccharide (E. coli O26: B6 origin, Difco) which was prepared to a concentration of 0.045 mg/ml using physiological saline. The saline preparation of lipopolysaccharide was administered at the rate of 10 ml/l kg of body weight into the caudal vein of Balb/c mice (males, age 5–7 weeks, body weight: approx. 22 g, Japan Charles River) which had been fasted overnight starting on the day before the experiment. One hour after administration, the mice were laparotomized under ether anaesthesia and blood was collected from the abdominal vena cava. Blood collection was performed using a 1 ml volume disposable syringe equipped with a 23G needle which had been moistened with heparin on the inside wall. Following blood collection, the blood was immediately transferred to a 1.5 ml volume Eppendorf tube and centrifuged at 4° C. and 14,000 rpm to separate the plasma. This plasma was then stored at −20° C. until measurement of TNFα. The measurement of the amount of TNFα was performed with a commercially available enzyme immunoassay (ELISA) kit (Mouse TNFα ELISA KIT, Genzyme).
To determine the inhibitory activity of the test compounds, each test compound was suspended in a 0.5% tragacanth solution and then administered orally to the Balb/c mice at the rate of 10 ml/1 kg of body weight 30 minutes before injection of lipopolysaccharide. The level of TNFα production was then determined as described above. In the control group, 0.5% tragacanth solution was administered at the rate of 10 ml/1 kg of body weight to the test mice instead of the solutions of the test compounds. A minimum of 3 dose levels of the test compound was administered to groups of 5 test mice for each test compound. The inhibitory rate relative to the control group was calculated for each dose level. From the inhibitory rates and the dosages, ID50 values were calculated by the least squares method.
The production of TNFα was induced in mice by the intravenous injection of lipopolysaccharide (E. coli O26: B6 origin, Difco) which was prepared to a concentration of 0.045 mg/ml using physiological saline. […]
To determine the inhibitory activity of the test compounds, each test compound was suspended in a 0.5% tragacanth solution and then administered orally to the Balb/c mice at the rate of 10 ml/1 kg of body weight 30 minutes before injection of lipopolysaccharide. The level of TNFα production was then determined as described above. […]

[1] = tested on: IL-1β production in human whole blood; assay: Inhibition of the production of IL-1β in vitro in human whole blood (Test Examples 1 and 1′); format: cell-based; settings: Table 8′, lipopolysaccharide 10 μg/ml, 6 hours at 37° C., plasma IL-1β by ELISA, least squares, read-out: Inhibitory Effect on IL-1β Production (in vitro) IC50
Procedure: (§1) Inhibition of the Production of the Cytokines IL-1β and TNFα in Vitro in Human Whole Blood
(§2) This test was performed according to the method of Hartman, et al. [D. A. Hartman, S. J. Ochalski and R. P. Carlson; The effects of anti-inflammatory and antiallergic drugs on cytokine release after stimulation of human whole blood by lipopolysaccharide and zymosan A: Inflamm. Res., 44, 269 (1995)].
(§3) Peripheral blood samples were collected in the presence of heparin from healthy adult volunteers. 1000 μl of whole blood were added to an Eppendorf tube to which 2 μl of a dimethyl sulfoxide solution of the test compound had been added in advance, after which 10 μl of lipopolysaccharide (E. coli 026: B6 origin, Difco) were added as a stimulant (final concentration of said lipopolysaccharide: 10 μg/ml). This was mixed well and then incubated for 6 hours at 37° C. in the presence of 5% CO2. At the end of the incubation, the mixture was cooled to 4° C. to stop the reaction, followed immediately by centrifuging for 5 minutes at 14,000 rpm to separate and collect the supernatant plasma. The IL-1β and TNFα produced and released into the plasma were measured using a commercially available enzyme immunoassay (ELISA) kit [Cayman (IL-1β) and Genzyme (TNFα)]. The procedure was also repeated in the absence of test compound. The inhibitory effect [IC50 (μM)] on the production of IL-1β and TNFα was determined from the amounts of the cytokines produced in the presence and absence of the test compound.
(§4) Inhibition of the Production of the Cytokines IL-1β and TNFα In Vitro in Human Whole Blood
as §3, with “O26:” for “026:”, “plasma” for “plasma.”, “kits” for “kit”, “determined by the method of least squares” for “determined”

[2] = tested on: TNFα production in human whole blood; assay: Inhibition of the production of TNFα in vitro in human whole blood (Test Examples 1 and 1′); format: cell-based; settings: Table 7′, lipopolysaccharide 10 μg/ml, 6 hours at 37° C., plasma TNFα by ELISA, least squares, read-out: Inhibitory Effect on TNFα Production (in vitro) IC50
Procedure: as §1, §2, §3, §4
as §3, with “O26:” for “026:”, “plasma” for “plasma.”, “kits” for “kit”, “determined by the method of least squares” for “determined”

[3] = tested on: adjuvant-induced arthritis; assay: Activity in preventing the development of adjuvant-induced arthritis in vivo (Test Examples 4 and 4′); settings: Table 10′; Lewis rat, oral once a day from day 0 to day 20, inhibition of swelling of injected foot on day 21
Procedure: The test was performed according to the method described by Winder et al. (Arthritis Rheum., 12, 472–482, 1969). Heat-killed dried Mycobacterium butyricum (Difco Laboratories, Lot 679123) was ground on an agate mortar, and was then suspended in dry-sterilised liquid paraffin (first grade, Wako Pure Chemical Industries, Ltd.) to make a 2 ml suspension. The resulting suspension was then sonicated and used as an adjuvant. Arthritis was induced by the intradermal injection of the adjuvant (100 μg of heat killed dried bacterium/0.05 ml of paraffin/paw) into the heel of the right hind paw of a Lewis rat (male, age 8 weeks, Japan Charles River). […] The volumes of the swollen feet (adjuvant-injected right hind foot volume—non-injected left hind foot volume) were calculated. The percent inhibition of swelling of the injected foot of the treated animals as compared to that of the control animals on day 21 was calculated as follows. […] ID50 values were calculated using this curve. […] […]

SMILES	Inhibitory Effect on TNFα Production (in vivo) IC50 (TNFα production) [mg/kg]	IC50 [1] [nM]	IC50 [2] [nM]	Activity in Preventing the Development of Adjuvant-Induced Arthritis in vivo IC50 [3] [mg/kg]
CC1=CC2C=C(c3c[nH]c(-c4ccc(F)cc4)c3-c3ccncc3)CCN2C1 (stereo in doubt) [Example 31′, 2-(4-Fluorophenyl)-4-[(8aS)-2-methyl-3,5,6,8a-tetrahydroindolizin-7-yl]-3-(pyridin-4-yl)-1H-pyrrole]	0.36	4.6	2.4	–
Fc1ccc(-c2[nH]cc(C3=C[C@@H]4C[C@H](c5ccccc5)CN4CC3)c2-c2ccncc2)cc1 [Example 12′, 2-(4-Fluorophenyl)-4-[(2R,8aS)-2-phenyl-1,2,3,5,6,8a-hexahydroindolizin-7-yl]-3-(pyridin-4-yl)-1H-pyrrole]	–	2.6	2.5	2.1
CC[C@H]1C[C@H]2C=C(c3c[nH]c(-c4ccc(F)cc4)c3-c3ccncc3)CCN2C1 [Example 32′, 4-[(2S,8aS)-2-Ethyl-1,2,3,5,6,8a-hexahydroindolizin-7-yl)-2-(4-fluorophenyl)-3-(pyridin-4-yl)-1H-pyrrole]	0.61	2.7	4.5	–
CCC[C@H]1C[C@H]2C=C(c3c[nH]c(-c4ccc(F)cc4)c3-c3ccncc3)CCN2C1 [Example 43′, 2-(4-Fluorophenyl)-4-[(2S,8aS)-2-propyl-1,2,3,5,6,8a-hexahydroindolizin-7-yl]-3-(pyridin-4-yl)-1H-pyrrole]	0.40	8	6	–

From patent publication US7122666B2, “Heteroaryl-substituted pyrrole derivatives, their preparation and their therapeutic uses” (Sankyo Company, Limited, priority 1999, dated 2006)
